Reference: patent US6987114B1, “Antiviral pyrimidinedione derivatives and process for the preparation thereof” (Samjin Pharmaceutical Co., Ltd, priority 1999, dated 2006)
Converted amounts (≈) assume the structure as drawn. Read-outs that look alike come from different tables or passages of the source.

Key:
[1] = test system: mock-infected MT-4 cells; assay: Cytotoxicity based on viability of mock-infected host cells (MTT method); assay type: cell-based; settings: mock-infected MT-4 cells, MTT method, 4 or 5 days at 37° C.
In short: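 Mock-infected MT-4 cells at 2.5×10^5 cells/ml were exposed to various concentrations of test compound, run in parallel with HIV-infected (1000 CCID50) cultures. After 4 or 5 days at 37° C., host-cell viability was read by MTT.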

[2] = test system: HIV; assay: microbe, parasite or virus in culture; assay type: cell-based
In short: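 MT-4 cells (2.5×10^5 cells/ml) infected with 1000 CCID50 HIV, added at once to compound dilutions, incubated 4 or 5 days at 37° C. Protection from virus-induced cytopathic effect read by MTT; cytotoxicity from MTT viability of mock-infected cells in parallel.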

[3] = Human immunodeficiency virus 1, MT4, HIV-infected MT-4 cells, MTT method, 4 or 5 days at 37° C., read-out: ED50 (the source's name)
[4] = Human immunodeficiency virus 1, MT4, read-out: ED50

Row | EC50 [2, 3] | SMILES | melting point | CD50 [1] | EC50 [2, 4]
1 | 0.11 mg/L (≈ 0.281 µM) | CCc1c(Oc2cc(C)cc(C)c2)n(Cn2nnc3ccccc32)c(=O)[nH]c1=O [Example 141, 1-(1H-benzotriazol-1-ylmethyl)-5-ethyl-6-(3,5-dimethylphenoxy)-2,4-pyrimidinedione] | 248 to 249 °C | 27.60 µg/mL | –
2 | 0.044 mg/L (≈ 0.109 µM) | Cc1cc(C)cc(Oc2c(C(C)C)c(=O)[nH]c(=O)n2Cn2nnc3ccccc32)c1 [Example 142, 1-(1H-benzotriazol-1-ylmethyl)-5-isopropyl-6-(3,5-dimethylphenoxy)-2,4-pyrimidinedione] | 278 to 279 °C | >100.00 µg/mL | –
3 | 0.026 mg/L (≈ 0.0644 µM) | CCc1c(C(=O)c2cc(C)cc(C)c2)n(Cn2nnc3ccccc32)c(=O)[nH]c1=O [Example 143, 1-(1H-benzotriazol-1-ylmethyl)-5-ethyl-6-(3,5-dimethylbenzoyl)-2,4-pyrimidinedione] | 226 to 229 °C | 9.76 µg/mL | –
4 | 0.03 mg/L (≈ 0.0719 µM) | Cc1cc(C)cc(C(=O)c2c(C(C)C)c(=O)[nH]c(=O)n2Cn2nnc3ccccc32)c1 [Example 144, 1-(1H-benzotriazol-1-ylmethyl)-5-isopropyl-6-(3,5-dimethyl-benzoyl)-2,4-pyrimidinedione] | 246 to 247 °C | 8.89 µg/mL | –
5 | – | CCc1c(Sc2cc(C)cc(C)c2)n(Cc2nc3ccccc3o2)c(=O)[nH]c1=O [Example 145, 1-(Benzoxazol-2-ylmethyl)-5-ethyl-6-(3,5-dimethylphenyl)thio-2,4-pyrimidinedione] | 104 to 106 °C | >100.00 µg/mL | 3.04 mg/L (≈ 7.46 µM)
6 | – | Cc1cc(C)cc(Sc2c(C(C)C)c(=O)[nH]c(=O)n2Cc2nc3ccccc3o2)c1 [Example 146, 1-(Benzoxazol-2-ylmethyl)-5-isopropyl-6-(3,5-dimethylphenyl)thio-2,4-pyrimidinedione] | 107 to 109 °C | >100.00 µg/mL | 1.02 mg/L (≈ 2.42 µM)
7 | – | CCc1c(Oc2cc(C)cc(C)c2)n(Cc2nc3ccccc3o2)c(=O)[nH]c1=O [Example 147, 1-(Benzoxazol-2-ylmethyl)-5-ethyl-6-(3,5-dimethylphenoxy)-2,4-pyrimidinedione] | 121 to 123 °C | 40.20 µg/mL | 0.061 mg/L (≈ 0.156 µM)
8 | – | Cc1cc(C)cc(Oc2c(C(C)C)c(=O)[nH]c(=O)n2Cc2nc3ccccc3o2)c1 [Example 148, 1-(Benzoxazol-2-ylmethyl)-5-isopropyl-6-(3,5-dimethylphenoxy)-2,4-pyrimidinedione] | 200 to 202 °C | 9.00 µg/mL | 0.01 mg/L (≈ 0.0247 µM)
9 | – | CCc1c(C(=O)c2cc(C)cc(C)c2)n(Cc2nc3ccccc3o2)c(=O)[nH]c1=O [Example 149, 1-(Benzoxazol-2-ylmethyl)-5-ethyl-6-(3,5-dimethyl-benzoyl)-2,4-pyrimidinedione] | 218 to 220 °C | 6.78 µg/mL | 0.029 mg/L (≈ 0.0719 µM)
10 | 0.018 mg/L (≈ 0.042 µM) | COC(=O)c1ccoc1Cn1c(Sc2cc(C)cc(C)c2)c(C(C)C)c(=O)[nH]c1=O [Example 152, 1-(3-Methoxycarbonyl-2-furanylmethyl)-5-isopropyl-6-(3,5-dimethylphenyl)thio-2,4-pyrimidinedione] | 135 to 137 °C | 9.61 µg/mL | –
11 | 0.278 mg/L (≈ 0.698 µM) | CCc1c(Oc2cc(C)cc(C)c2)n(Cc2occc2C(=O)OC)c(=O)[nH]c1=O [Example 153, 1-(3-Methoxycarbonyl-2-furanylmethyl)-5-ethyl-6-(3,5-dimethylphenoxy)-2,4-pyrimidinedione] | 150 to 152 °C | 12.22 µg/mL | –
12 | 0.074 mg/L (≈ 0.179 µM) | COC(=O)c1ccoc1Cn1c(Oc2cc(C)cc(C)c2)c(C(C)C)c(=O)[nH]c1=O [Example 154, 1-(3-Methoxycarbonyl-2-furanylmethyl)-5-isopropyl-6-(3,5-dimethylphenoxy)-2,4-pyrimidinedione] | 157 to 159 °C | 10.11 µg/mL | –
13 | 0.017 mg/L (≈ 0.0414 µM) | CCc1c(C(=O)c2cc(C)cc(C)c2)n(Cc2occc2C(=O)OC)c(=O)[nH]c1=O [Example 155, 1-(3-Methoxycarbonyl-2-furanylmethyl)-5-ethyl-6-(3,5-dimethyl-benzoyl)-2,4-pyrimidinedione] | 204 to 206 °C | 13.45 µg/mL | –
14 | 0.014 mg/L (≈ 0.033 µM) | COC(=O)c1ccoc1Cn1c(C(=O)c2cc(C)cc(C)c2)c(C(C)C)c(=O)[nH]c1=O [Example 156, 1-(3-Methoxycarbonyl-2-furanylmethyl)-5-isopropyl-6-(3,5-dimethyl-benzoyl)-2,4-pyrimidinedione] | 180 to 183 °C | 10.92 µg/mL | –
15 | – | CCc1c(Oc2cc(C)cc(C)c2)n(CC(C)=O)c(=O)[nH]c1=O [Example 157, 1-(Acetonyl)-5-ethyl-6-(3,5-dimethylphenoxy)-2,4-pyrimidinedione] | 162 to 165 °C | 3.6 µg/mL | 0.0119 mg/L (≈ 0.0376 µM)
16 | – | CC(=O)Cn1c(Oc2cc(C)cc(C)c2)c(C(C)C)c(=O)[nH]c1=O [Example 158, 1-(Acetonyl)-5-isopropyl-6-(3,5-dimethylphenoxy)-2,4-pyrimidinedione] | 181 to 183 °C | >100.00 µg/mL | 0.0043 mg/L (≈ 0.013 µM)
17 | – | CCc1c(C(=O)c2cc(C)cc(C)c2)n(CC(C)=O)c(=O)[nH]c1=O [Example 159, 1-(Acetonyl)-5-ethyl-6-(3,5-dimethylbenzoyl)-2,4-pyrimidinedione] | 186 to 189 °C | 11.8 µg/mL | 0.0018 mg/L (≈ 0.00548 µM)
18 | – | CC(=O)Cn1c(C(=O)c2cc(C)cc(C)c2)c(C(C)C)c(=O)[nH]c1=O [Example 160, 1-(Acetonyl)-5-isopropyl-6-(3,5-dimethylbenzoyl)-2,4-pyrimidinedione] | 181 to 183 °C | 14.0 µg/mL | 0.0005 mg/L (≈ 0.00146 µM)
19 | – | CCC(=O)Cn1c(Oc2cc(C)cc(C)c2)c(CC)c(=O)[nH]c1=O [Example 161, 1-(2-Butanon-1-yl)-5-ethyl-6-(3,5-dimethylphenoxy)-2,4-pyrimidinedione] | 116 to 118 °C | 48.0 µg/mL | 0.018 mg/L (≈ 0.0545 µM)
20 | – | CCC(=O)Cn1c(Oc2cc(C)cc(C)c2)c(C(C)C)c(=O)[nH]c1=O [Example 162, 1-(2-Butanon-1-yl)-5-isopropyl-6-(3,5-dimethylphenoxy)-2,4-pyrimidinedione] | 135 to 138 °C | 41.40 µg/mL | 0.0159 mg/L (≈ 0.0462 µM)
21 | – | CCC(=O)Cn1c(C(=O)c2cc(C)cc(C)c2)c(C(C)C)c(=O)[nH]c1=O [Example 164, 1-(2-Butanon-1-yl)-5-isopropyl-6-(3,5-dimethylbenzoyl)-2,4-pyrimidinedione] | 174 to 176 °C | 20.58 µg/mL | 0.0026 mg/L (≈ 0.00729 µM)
